Data on 13 molecules can be found in ChEMBL document CHEMBL1144514, “The design, synthesis, and biological evaluation of novel substituted purines as HIV-1 Tat-TAR inhibitors” (Bioorg Med Chem, 2007).

Data set [1] in a line: Cytotoxicity against CEM174 cells. Type of data set: cell-based. The note with it: human, read-out: TC50 (the source's name).
Data set [2] relates to Simian immunodeficiency virus. The data set can be described thus: Inhibition of SIV-induced cytopathogenicity in CEM174 cells. Type of data set: functional, organism-based. A general note: Cytopathic effects are the visible damage that an infection or toxin causes in cultured cells.
Data set [3] can be described thus: Selectivity index, ratio of EC50 for SIV infected CEM174 cells to TC50 for CEM174 cells. Type of data set: functional.
Data set [4] deals with 293T. Kind of data set: Inhibition of Tat-mediated transactivation in human 293T cells assessed as CAT expression at 30 uM. Type of data set: cell-based. The note with it: Human immunodeficiency virus 1.

With `Cc1cn([C@H]2C[C@H](N=[N+]=[N-])[C@@H](CO)O2)c(=O)[nH]c1=O` [ZIDOVUDINE], in data set [1], the CC50 is > 100 µM. Besides, in data set [2], the EC50 was determined as 0.0122 µM.

As to `CCN(CC)c1nc(C)c2[nH]c(SCC(=O)NCCN)[n+](CCCN(C)C)c2n1`, the Selectivity index in data set [3] is >29.4. Moreover, the CC50 in data set [1] is > 100 µM. Moreover, the inhibition in data set [4] was determined as 57.7%. In data set [2], a half-maximal effect (EC50) was put at 3.4 µM.

For the molecule `CCN(CC)CC[n+]1c(SCC(=O)NCCCNC(=N)N)[nH]c2c(C)nc(N(CC)CC)nc21`, the Selectivity index in data set [3] is on record as >21.3. In addition, the CC50 in data set [1] is > 100 µM. Also, the inhibition in data set [4] stood at 36.2%. Also, the EC50 in data set [2] worked out at 4.7 µM.

In the case of `CCN(CC)CC[n+]1c(SCC(=O)NCCN)[nH]c2c(C)nc(N(CC)CC)nc21`, the Selectivity index in data set [3] is recorded as 40.2. Moreover, the CC50 in data set [1] turned out to be 52.2 µM. In addition, in data set [4], the inhibition amounted to 43.1%. Besides, the EC50 in data set [2] worked out at 1.3 µM.

For `CCN(CC)c1nc(C)c2[nH]c(SCC(=O)NCCCNC(=N)N)nc2n1`, in data set [3], the Selectivity index is on record as >142.9. Also, the CC50 in data set [1] was > 100 µM. Besides, the inhibition in data set [4] was determined as 57.1%. It took 0.7 µM to reach a half-maximal effect in data set [2] (EC50).

Take `CCN(CC)CC[n+]1c(SCC(=O)NCCNC(=N)N)[nH]c2c(C)nc(N(CC)CC)nc21`: the Selectivity index in data set [3] is >142.9. Moreover, in data set [1], the CC50 was > 100 µM. For the same molecule, the inhibition in data set [4] was determined as 34.9%. In data set [2], this molecule returned an EC50 of 0.7 µM.

As for `CCN(CC)c1nc(C)c2[nH]c(SCC(=O)NCCCN)[n+](CCCN(C)C)c2n1`, the Selectivity index in data set [3] is given as >500. Also, the CC50 in data set [1] was > 100 µM. Besides, in data set [4], the inhibition was determined as 48.7%. Further, the EC50 in data set [2] came to 0.2 µM.

With `CCN(CC)c1nc(C)c2[nH]c(SCC(=O)NCCN)nc2n1`, the Selectivity index in data set [3] is listed as >50. Besides, in data set [1], the CC50 is > 100 µM. In addition, the inhibition in data set [4] is 65.7%. Further, the response in data set [2] was half-maximal at 2 µM (EC50).

With `CCN(CC)CC[n+]1c(SCC(=O)NCCCN)[nH]c2c(C)nc(N(CC)CC)nc21`, the Selectivity index in data set [3] was >71.4. The CC50 in data set [1] is > 100 µM. Besides, in data set [4], the inhibition was 43.3%. This molecule also yielded an EC50 in data set [2] of 1.4 µM.

Turning to `CCN(CC)c1nc(C)c2[nH]c(SCC(=O)NCCCN)nc2n1`, the Selectivity index in data set [3] is given as >200. Further, in data set [1], the CC50 was > 100 µM. The inhibition in data set [4] is 58.4%. In data set [2], this molecule displayed an EC50 of 0.5 µM.

As for `CCN(CC)c1nc(C)c2[nH]c(SCC(=O)NCCCNC(=N)N)[n+](CCCN(C)C)c2n1`, the Selectivity index in data set [3] is >31.25. Further, the CC50 in data set [1] is > 100 µM. For the same molecule, in data set [4], the inhibition came out at 48.8%. In addition, a half-maximal response in data set [2] (EC50) required 3.2 µM.

For `CCN(CC)c1nc(C)c2[nH]c(SCC(=O)NCCNC(=N)N)nc2n1`, the Selectivity index in data set [3] is >23.8. For the same molecule, the CC50 in data set [1] is > 100 µM. Also, the inhibition in data set [4] is 57.1%. For the same molecule, it took 4.2 µM to reach a half-maximal effect in data set [2] (EC50).

Regarding `CCN(CC)c1nc(C)c2[nH]c(SCC(=O)NCCNC(=N)N)[n+](CCCN(C)C)c2n1`, the Selectivity index in data set [3] is listed as >13.9. Besides, the CC50 in data set [1] is > 100 µM. Further, the inhibition in data set [4] turned out to be 50.2%. Also, in data set [2], it took 7.2 µM to reach a half-maximal effect (EC50).

A word on the EC50: it is the midpoint of the concentration-response curve. Low values mean a more potent agent, high ones a less potent agent. A word on the inhibition: it is the share of the control response that was lost under treatment.
